Measured values as given in patent US11306081B2, “Phenylacetamides as inhibitors of rock” (BRISTOL-MYERS SQUIBB COMPANY, priority 2017, dated 2022).

Target: ROCK2 (Homo sapiens (Human), UniProt O75116)
Assay: ROCK assay (LABCHIP 3000 peptide phosphorylation assay)
Assay type: biochemical
Details: 5 μM ATP, 1.5 μM peptide substrate, dose-response
Procedure: The effectiveness of compounds of the present invention as ROCK inhibitors can be determined in a 30 μL assay containing 20 mM HEPES, pH 7.5, 20 mM MgCl2, 0.015% Brij-35, 4 mM DTT, 5 μM ATP and 1.5 μM peptide substrate (FITC-AHA-AKRRRLSSLRA-OH) (SEQ ID No. 1). Compounds were dissolved in DMSO so that the final concentration of DMSO was <2%, and the reaction was initiated with Rho kinase variants. After incubation, the reaction was terminated by the addition of EDTA and the phosphorylated and non-phosphorylated peptides separated using a LABCHIP® 3000 Reader (Caliper Life Sciences). […] Compounds were tested in dose-response format, and the inhibition of kinase activity was calculated at each concentration of compound. The inhibition data were fit using a curve-fitting program to determine the IC50; i.e., the concentration of compound required to inhibit 50% of kinase activity.

Sequence of ROCK2 (O75116 whole entry, species assumed): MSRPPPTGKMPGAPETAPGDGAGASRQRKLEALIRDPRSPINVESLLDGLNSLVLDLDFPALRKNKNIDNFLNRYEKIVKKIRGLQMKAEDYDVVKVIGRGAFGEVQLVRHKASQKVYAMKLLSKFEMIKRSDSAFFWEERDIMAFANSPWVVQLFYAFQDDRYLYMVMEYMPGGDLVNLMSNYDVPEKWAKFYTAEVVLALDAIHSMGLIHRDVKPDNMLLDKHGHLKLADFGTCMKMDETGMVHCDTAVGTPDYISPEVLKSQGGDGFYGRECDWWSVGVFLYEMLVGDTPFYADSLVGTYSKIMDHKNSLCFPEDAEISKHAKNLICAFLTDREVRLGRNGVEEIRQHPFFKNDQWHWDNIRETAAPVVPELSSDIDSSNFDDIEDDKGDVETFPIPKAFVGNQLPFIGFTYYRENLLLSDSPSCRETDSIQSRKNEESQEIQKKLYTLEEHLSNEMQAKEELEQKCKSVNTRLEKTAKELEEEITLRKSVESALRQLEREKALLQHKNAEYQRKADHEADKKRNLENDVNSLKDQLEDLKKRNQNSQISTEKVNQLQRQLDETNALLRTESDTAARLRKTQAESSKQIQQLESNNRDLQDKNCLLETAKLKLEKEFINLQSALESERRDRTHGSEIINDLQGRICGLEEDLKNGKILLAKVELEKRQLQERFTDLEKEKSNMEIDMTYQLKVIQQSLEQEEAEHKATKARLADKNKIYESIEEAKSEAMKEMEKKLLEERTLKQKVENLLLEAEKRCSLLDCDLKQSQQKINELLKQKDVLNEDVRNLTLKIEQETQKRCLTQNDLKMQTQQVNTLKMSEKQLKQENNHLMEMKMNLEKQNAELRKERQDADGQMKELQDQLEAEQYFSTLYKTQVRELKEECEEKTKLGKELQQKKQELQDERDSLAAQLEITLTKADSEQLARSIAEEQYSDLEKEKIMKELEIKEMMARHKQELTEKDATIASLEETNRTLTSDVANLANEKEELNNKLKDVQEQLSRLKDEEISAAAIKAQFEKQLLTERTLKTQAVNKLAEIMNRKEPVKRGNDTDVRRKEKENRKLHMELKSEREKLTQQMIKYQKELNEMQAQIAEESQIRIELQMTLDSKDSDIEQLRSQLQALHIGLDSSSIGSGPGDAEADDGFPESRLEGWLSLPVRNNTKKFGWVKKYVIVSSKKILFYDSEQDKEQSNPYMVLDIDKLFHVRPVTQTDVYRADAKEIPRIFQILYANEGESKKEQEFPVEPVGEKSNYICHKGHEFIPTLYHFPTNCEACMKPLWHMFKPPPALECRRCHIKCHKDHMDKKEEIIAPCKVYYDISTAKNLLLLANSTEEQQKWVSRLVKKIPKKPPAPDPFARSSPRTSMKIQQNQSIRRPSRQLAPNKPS

Cn1cc(-c2ccc3nc(NC(=O)Cc4ccc(Oc5ncccc5C(N)=O)c(Cl)c4)cn3c2)cn1 [Example 037, 2-(2-chloro-4-(2-((6-(1-methyl-1H-pyrazol-4-yl)imidazo[1,2-a]pyridin-2-yl)amino)-2-oxoethyl)phenoxy)nico-tinamide]
IC50: 34 nM

COc1ccn2nc(NC(=O)Cc3ccc(Oc4ncccc4C(N)=O)c(Cl)c3)nc2c1 [Example 125, 2-(2-chloro-4-(2-((7-methoxy-[1,2,4]triazolo-[1,5-a]pyridin-2-yl)amino)-2-oxoethyl)phenoxy)-nicotinamide]
IC50: 12 nM

NC(=O)c1cccnc1Oc1ccc(CC(=O)Nc2nc3ccc(C(F)(F)F)cn3n2)cc1F [Example 129, 2-(2-fluoro-4-(2-oxo-2-((6-(trifluoromethyl)-[1,2,4]triazolo-[1,5-a]pyridin-2-yl)amino)ethyl)-phenoxy)nicotin-amide]
IC50: 69 nM

CC(C)(O)COc1ccc2c(c1)CCc1sc(NC(=O)Cc3ccc(Oc4ncccc4C(N)=O)cc3)nc1-2 [Example 108, 2-(4-(2-((7-(2-hydroxy-2-methylpropoxy)-4,5-dihydronaphtho[1,2-d]thiazol-2-yl)amino)-2-oxoethyl)phenoxy)nicotinamide]
IC50: 40 nM

NC(=O)c1cccnc1Oc1ccc(CC(=O)Nc2nnc(-c3cccnc3)s2)cc1F [Example 090, 2-(2-fluoro-4-(2-oxo-2-((5-(pyridin-3-yl)-1,3,4-thiadiazol-2-yl)amino)ethyl)phe-noxy)nicotinamide]
IC50: 419 nM

Cc1sc(NC(=O)Cc2ccc(Oc3ncccc3C(N)=O)c(F)c2)nc1-c1cnc(C(C)(C)O)nc1 [Example 042, 2-(2-fluoro-4-(2-((4-(2-(2-hydroxypropan-2-yl)pyrimidin-5-yl)-5-methylthiazol-2-yl)amino)-2-oxoethyl)phenoxy)nico-tinamide]
IC50: 471 nM

Cc1nc2sccn2c1-c1csc(NC(=O)Cc2ccc(Oc3ncccc3C(N)=O)c(Cl)c2)n1 [Example 081, 2-(2-chloro-4-(2-((4-(6-methylimidazo[2,1-b]thiazol-5-yl)thiazol-2-yl)amino)-2-oxoethyl)phenoxy) nicotinamide]
IC50: 59 nM

Cc1sc(NC(=O)Cc2ccc(Oc3ncccc3C(N)=O)c(F)c2)nc1-c1ccc(S(C)(=O)=O)cc1 [Example 047, 2-(2-fluoro-4-(2-((5-methyl-4-(4-(methylsulfonyl)phenyl)thiazol-2-yl)amino)-2-oxoethyl)phenoxy)nico-tinamide]
IC50: 84 nM

COc1ccc2nc(NC(=O)Cc3ccc(Oc4ncccc4C(N)=O)cc3)sc2c1 [Example 067, 2-(4-(2-((6-methoxybenzo[d]thiazol-2-yl)amino)-2-oxoethyl)phenoxy) nicotinamide]
IC50: 89 nM

Cc1n[nH]c(C)c1-c1ccc2sc(NC(=O)Cc3ccc(Oc4ncccc4C(N)=O)c(F)c3)nc2c1 [Example 005, 2-(4-(2-((5-(3,5-dimethyl-1H-pyrazol-4-yl)benzo[d]thiazol-2-yl)amino)-2-oxoethyl)-2-fluorophenoxy)nic-otinamide]
IC50: 10 nM

Cc1nc(NC(=O)Cc2ccc(Oc3ncccc3C(N)=O)c(F)c2)sc1-c1ccccn1 [Example 012, 2-(2-fluoro-4-(2-((4-methyl-5-(pyridin-2-yl)thiazol-2-yl)amino)-2-oxoethyl)phenoxy)nic-otinamide]
IC50: 38 nM

NC(=O)c1cccnc1Oc1ccc(CC(=O)Nc2nc3cc(-c4cc[nH]c(=O)c4)ccc3s2)cc1F [Example 024, 2-(2-fluoro-4-(2-oxo-2-((5-(2-oxo-1,2-dihydropyridin-4-yl)benzo[d]thiazol-2-yl)amino)ethyl)phe-noxy)nicotinamide]
IC50: 8 nM

NC(=O)c1cccnc1Oc1ccc(CC(=O)Nc2nc3ccccc3n2CC(F)F)cc1F [Example 111, 2-(4-(2-((1-(2,2-difluoroethyl)-1H-benzo[d]imidazol-2-yl)amino)-2-oxoethyl)-2-fluorophenoxy)nicotinamide]
IC50: 37 nM

NC(=O)c1cccnc1Oc1ccc(CC(=O)Nc2nc3cccc(C(F)(F)F)n3n2)cc1F [Example 126, 2-(2-fluoro-4-(2-oxo-2-((5-(trifluoro-methyl)-[1,2,4]-triazolo[1,5-a]-pyridin-2-yl)amino)-ethyl)phenoxy)-nicotinamide]
IC50: 82 nM

NC(=O)c1cccnc1Oc1ccc(CC(=O)Nc2nc3c(F)cccc3n2CC(F)F)cc1Cl [Example 173, 2-(2-chloro-4-(2-((1-(2,2-difluoro-ethyl)-4-fluoro-1H-benzo[d]-imidazol-2-yl)-amino)-2-oxo-ethyl)phenoxy)-nicotinamide]
IC50: 8 nM

Cc1sc(NC(=O)Cc2ccc(Oc3ncccc3C(N)=O)c(F)c2)nc1-c1ccc(F)nc1 [Example 085, 2-(2-fluoro-4-(2-((4-(6-fluoropyridin-3-yl)-5-methylthiazol-2-yl)amino)-2-oxoethyl)phenoxy) nicotinamide]
IC50: 176 nM

Cc1nn(C)c(-c2ccc3sc(NC(=O)Cc4ccc(Oc5ncccc5C(N)=O)c(F)c4)nc3c2)c1C [Example 027, 2-(2-fluoro-4-(2-oxo-2-((5-(1,3,4-trimethyl-1H-pyrazol-5-yl)benzo[d]thiazol-2-yl)amino)ethyl)phenoxy) nicotinamide]
IC50: 5 nM

CC(C)(O)COc1ccc2sc(NC(=O)Cc3ccc(Oc4ncccc4C(N)=O)cc3)nc2c1 [Example 107, 2-(4-(2-((5-(2-hydroxy-2-methylpropoxy)benzo[d]thiazol-2-yl)amino)-2-oxoethyl)phenoxy)nicotinamide]
IC50: 29 nM

Cc1cccc(Nc2ncnc3ccc(NC(=O)Cc4ccc(Oc5ncccc5C(N)=O)cc4)cc23)c1 [Example 077, 2-(4-(2-oxo-2-((4-(m-tolylamino)quinaz-olin-6-yl)amino)ethyl)phe-noxy)nicotinamide]
IC50: 42 nM

NC(=O)c1cccnc1Oc1ccc(CC(=O)Nc2nc3ccccc3n2CC2CC2)cc1F [Example 167, 2-(4-(2-((1-(cyclo-propylmethyl)-1H-benzo[d]-imidazol-2-yl)-amino)-2-oxo-ethyl)-2-fluoro-phenoxy)nicotin-amide]
IC50: 25 nM

NC(=O)c1cccnc1Oc1ccc(CC(=O)Nc2nc3c(F)cccc3n2CC2CC2)cc1F [Example 161, 2-(4-(2-((1-(cyclopropyl-methyl)-4-fluoro-1H-benzo[d]-imidazol-2-yl)-amino)-2-oxoethyl)-2-fluorophenoxy)-nicotinamide]
IC50: 16 nM

COc1ccc(-c2csc(NC(=O)Cc3ccc(Oc4ncccc4C(N)=O)cc3)n2)cc1OC [Example 051, 2-(4-(2-((4-(3,4-dimethoxyphenyl)thiazol-2-yl)amino)-2-oxoethyl)phenoxy) nicotinamide]
IC50: 145 nM

Cc1cccc(-c2nc(NC(=O)Cc3ccc(Oc4ncccc4C(N)=O)c(Cl)c3)sc2C)n1 [Example 022, 2-(2-chloro-4-(2-((5-methyl-4-(6-methylpyridin-2-yl)thiazol-2-yl)amino)-2-oxoethyl)phenoxy)nicotinamide]
IC50: 41 nM

Cc1cnc(NC(=O)Cc2ccc(Oc3ncccc3C(N)=O)c(F)c2)s1 [Example 088, 2-(2-fluoro-4-(2-((5-methylthiazol-2-yl)amino)-2-oxoethyl)phenoxy) nicotinamide]
IC50: 126 nM

NC(=O)c1cccnc1Oc1ccc(CC(=O)Nc2nc3c(OC(F)F)cccn3n2)cc1F [Example 139, 2-(4-(2-((8-(difluoromethoxy)-[1,2,4]triazolo[1,5-a]pyridin-2-yl)amino)-2-oxoethyl)-2-fluorophenoxy)nicotinamide]
IC50: 25 nM

Cn1nc(NC(=O)Cc2ccc(Oc3ncccc3C(N)=O)c(Cl)c2)c2cccnc21 [Example 010, 2-(2-chloro-4-(2-((1-methyl-1H-pyrazolo[3,4-b]pyridin-3-yl)amino)-2-oxoethyl)phenoxy)nicotinamide]
IC50: 159 nM

COc1cccc2c1nc(NC(=O)Cc1ccc(Oc3ncccc3C(N)=O)c(F)c1)n2CC1CC1 [Example 163, 2-(4-(2-((1-(cyclo-propylmethyl)-4-methoxy-1H-benzo[d]imidazol-2-yl)amino)-2-oxoethyl)-2-fluorophenoxy)-nicotinamide]
IC50: 16 nM

Cc1sc(NC(=O)Cc2ccc(Oc3ncccc3C(N)=O)c(Cl)c2)nc1-c1ccc(F)nc1 [Example 103, 2-(2-chloro-4-(2-((4-(6-fluoropyridin-3-yl)-5-methylthiazol-2-yl)amino)-2-oxoethyl)phenoxy) nicotinamide]
IC50: 17 nM

NC(=O)c1cccnc1Oc1ccc(CC(=O)Nc2nc3c(F)cccc3n2CC2CC2)cc1Cl [Example 171, 2-(2-chloro-4-(2-((1-(cyclo-propylmethyl)-4-fluoro-1H-benzo[d]-imidazol-2-yl)-amino)-2-oxo-ethyl)phenoxy)-nicotinamide]
IC50: 3 nM

NC(=O)c1cccnc1Oc1ccc(CC(=O)Nc2nc(-c3cccc(OC(F)(F)F)c3)cs2)cc1 [Example 062]
IC50: 863 nM

COC(=O)c1ccc2c(c1)nc(NC(=O)Cc1ccc(Oc3ncccc3C(N)=O)cc1)n2C [Example 074, methyl 2-(2-(4-((3-carbamoylpyridin-2-yl)oxy)phenyl)acet-amido)-1-methyl-1H-benzo[d]imidazole-5-carboxylate]
IC50: 1100 nM

COCCn1c(NC(=O)Cc2ccc(Oc3ncccc3C(N)=O)c(F)c2)nc2cc(C(N)=O)ccc21 [Example 156, 2-(2-(4-((3-carbamoyl-pyridin-2-yl)oxy)-3-fluorophenyl)-acetamido)-1-(2-methoxyethyl)-1H-benzo[d]-imidazole-5-carboxamide]
IC50: 3460 nM

NC(=O)c1cccnc1Oc1ccc(CC(=O)Nc2nc3c(F)cccn3n2)cc1F [Example 127, 2-(2-fluoro-4-(2-((8-fluoro-[1,2,4]-triazolo[1,5-a]-pyridin-2-yl)amino)-2-oxoethyl)phenoxy)-nicotinamide]
IC50: 127 nM
